# Test results published in patent publication US9085578B2, “Heterocyclic compound” (Takeda Pharmaceutical Company Limited, priority 2012, dated 2015).
# Target: T1, Tyk2 (Homo sapiens, UniProt P29597)
# T1 construct: purchased Invitrogen
# Test: Tyk2 enzyme inhibition test (LANCE method)
# Assay type: biochemical
# Settings: 1 uM test compound, ULight-JAK1 peptide substrate, well without enzyme = 100% inhibition, read-out: Tyk2 enzyme inhibitory activity (%, 1 uM)
# Method: Tyk2 enzyme inhibitory activity of test compounds was measured by LANCE method (PerkinElmer). First, a test compound diluted with assay buffer (50 mM HEPES (pH=7.5), 10 mM MgCl2, 1 mM EGTA, 2 mM DTT, 0.01% Tween20, 0.01% BSA) was added to 384-well plate at 2 μL each. Then, a Tyk2 (Invitrogen) solution and a fluorescence-labeled peptide substrate (ULight-JAK1, PerkinElmer) solution diluted with assay buffer at 375 ng/mL and 300 nM, respectively were added at 2 μL each. Then, enzyme reaction was started by adding 2 μL each of ATP solution prepared with assay buffer at 30 μM. After the reaction at room temperature for 1 hr, Detection Buffer (PerkinElmer) prepared to be 20 mM EDTA, 4 nM europium-labeled anti-phosphotyrosine antibody (PerkinElmer) was added at 6 μL each. After standing at room temperature for 1 hr, fluorescence intensity (excitation wavelength 340 nm, fluorescence wavelength 665 nm, delay time 100 microsecond) was measured by a plate reader, Envision (PerkinElmer). The inhibitory activity of each compound was calculated as relative value where fluorescence intensity of a well without enzyme is considered as 100% inhibition.
# T1 sequence (P29597 whole entry): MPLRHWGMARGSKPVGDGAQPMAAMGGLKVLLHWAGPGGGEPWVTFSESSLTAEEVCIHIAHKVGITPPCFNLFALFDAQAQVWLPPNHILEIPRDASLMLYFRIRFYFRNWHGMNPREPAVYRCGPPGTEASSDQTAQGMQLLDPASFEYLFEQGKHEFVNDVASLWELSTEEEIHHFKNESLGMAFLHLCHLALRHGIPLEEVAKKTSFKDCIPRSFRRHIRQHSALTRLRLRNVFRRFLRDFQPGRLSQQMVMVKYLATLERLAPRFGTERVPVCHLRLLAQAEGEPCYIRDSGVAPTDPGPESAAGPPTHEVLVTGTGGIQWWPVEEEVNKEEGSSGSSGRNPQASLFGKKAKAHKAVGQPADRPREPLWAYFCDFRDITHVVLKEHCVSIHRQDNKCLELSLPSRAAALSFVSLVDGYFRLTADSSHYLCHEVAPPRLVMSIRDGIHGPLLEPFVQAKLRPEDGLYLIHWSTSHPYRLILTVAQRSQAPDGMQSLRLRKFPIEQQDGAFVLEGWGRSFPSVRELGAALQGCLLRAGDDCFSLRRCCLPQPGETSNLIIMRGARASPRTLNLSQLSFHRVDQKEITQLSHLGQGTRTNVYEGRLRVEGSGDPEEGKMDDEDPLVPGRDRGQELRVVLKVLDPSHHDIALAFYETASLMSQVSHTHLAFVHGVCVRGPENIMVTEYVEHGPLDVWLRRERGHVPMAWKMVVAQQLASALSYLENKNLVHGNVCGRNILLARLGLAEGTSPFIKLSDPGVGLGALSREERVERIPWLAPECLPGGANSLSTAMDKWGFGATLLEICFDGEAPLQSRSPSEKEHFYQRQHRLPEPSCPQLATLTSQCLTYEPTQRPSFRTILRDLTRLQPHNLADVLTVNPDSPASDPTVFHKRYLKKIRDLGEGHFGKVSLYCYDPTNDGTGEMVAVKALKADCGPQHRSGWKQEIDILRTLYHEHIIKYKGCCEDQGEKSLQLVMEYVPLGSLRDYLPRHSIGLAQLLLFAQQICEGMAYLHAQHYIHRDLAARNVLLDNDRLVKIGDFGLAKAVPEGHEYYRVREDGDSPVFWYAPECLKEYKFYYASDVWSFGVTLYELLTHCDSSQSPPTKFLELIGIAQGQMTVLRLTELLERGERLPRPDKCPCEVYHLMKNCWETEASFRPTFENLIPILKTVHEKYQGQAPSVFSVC
row,Structure (SMILES),inhibition at 1 µM
1,"CC(C)C(C)n1cc(-c2ccn(C)n2)c2[nH]nc(N)c2c1=O (stereo not drawn) [Example 13, 3-amino-5-(3-methylbutan-2-yl)-7-(1-methyl-1H-pyrazol-3-yl)-1,5-dihydro-4H-pyrazolo[4,3-c]pyridin-4-one]",98%
2,"CC1CCCCC1n1cc(-c2ccn(C)n2)c2[nH]nc(N)c2c1=O (stereo not drawn) [Example 14, 3-amino-5-(2-methylcyclohexyl)-7-(1-methyl-1H-pyrazol-3-yl)-1,5-dihydro-4H-pyrazolo[4,3-c]pyridin-4-one]",98%
3,"Cn1ccc(-c2cn(-c3c(F)cccc3F)c(=O)c3c(N)n[nH]c23)n1 [Example 15, 3-amino-5-(2,6-difluorophenyl)-7-(1-methyl-1H-pyrazol-3-yl)-1,5-dihydro-4H-pyrazolo[4,3-c]pyridin-4-one]",100%
4,"Nc1n[nH]c2c(-c3csc(CN4CCCC4)c3)cn(-c3ccccc3Cl)c(=O)c12 [Example 38, 3-amino-5-(2-chlorophenyl)-7-(5-(pyrrolidin-1-ylmethyl)-3-thienyl)-1,5-dihydro-4H-pyrazolo[4,3-c]pyridin-4-one]",95%

# More lines, now with the values ahead:
row,inhibition at 1 µM,Structure (SMILES)
1,40%,"Cc1ccccc1-n1cc(Br)c2[nH]nc(N)c2c1=O [Example 1, 3-amino-7-bromo-5-(2-methylphenyl)-1,5-dihydro-4H-pyrazolo[4,3-c]pyridin-4-one]"
2,82%,"N#Cc1cc2[nH]nc(N)c2c(=O)n1-c1ccccc1Cl [Example 16, 3-amino-5-(2-chlorophenyl)-4-oxo-4,5-dihydro-1H-pyrazolo[4,3-c]pyridine-6-carbonitrile]"
3,98%,"Nc1n[nH]c2c(-c3ccccn3)cn(-c3ccccc3Cl)c(=O)c12 [Example 24, 3-amino-5-(2-chlorophenyl)-7-(pyridin-2-yl)-1,5-dihydro-4H-pyrazolo[4,3-c]pyridin-4-one]"
4,100%,"N#Cc1ccnc(-c2cn(-c3ccccc3Cl)c(=O)c3c(N)n[nH]c23)c1 [Example 28, 2-(3-amino-5-(2-chlorophenyl)-4-oxo-4,5-dihydro-1H-pyrazolo[4,3-c]pyridin-7-yl)isonicotinonitrile]"
5,92%,"Cn1ccc(-c2cn(-c3ccccc3C(F)(F)F)c(=O)c3c(N)n[nH]c23)n1 [Example 43, 3-amino-7-(1-methyl-1H-pyrazol-3-yl)-5-(2-(trifluoromethyl)phenyl)-1,5-dihydro-4H-pyrazolo[4,3-c] pyridin-4-one]"
